Laboratory results taken from US9861616B2, “Methods for treating respiratory diseases and formulations therefor” (priority 2013, dated 2018).

System: P. aeruginosa (PA)
Experiment: MIC by microdilution, 36 clinical and laboratory strains with known efflux phenotype
Format: cell-based
Method: MICs of 36 clinical and laboratory strains of PA with known efflux phenotype are measured by microdilution in cation-adjusted Muller-Hinton broth (CA-MHB) or in RPMI medium (commonly used in eukaryotic cell culture). Phe-Arg-β-naphthylamide (PaβN, 50 mg/L) and EGTA 5 mM are used to inhibit efflux pumps and alter OM integrity, respectively. P. aeruginosa strain ATCC PAO1 is used as reference. PA12 is a clinical strain overexpressing the 4 main efflux systems (MexAB, MexCD, MexEF, MexXY), PA403 is a laboratory strain deleted in the genes coding for the 4 efflux systems. A series of reference strains or of clinical isolates for which the expression of genes coding for efflux pumps is known is also used for MICs determinations. MICs are measured by microdilution in MH broth or in RPMI medium (used for eukaryotic cells culture) supplemented with 10% of fetal calf serum, or in MH broth supplemented by increasing amounts of serum. EGTA (5 mM) was used as a chelating agent (disrupting outer membrane integrity) and PaβN (50 mg/L) as an unspecific efflux inhibitor.

Measured: MIC

CC[C@H]1OC(=O)[C@H](C)C(=O)[C@H](C)[C@@H](O[C@@H]2O[C@H](C)C[C@H](N(C)C)[C@H]2O)[C@](C)(OC)C[C@@H](C)C(=O)[C@H](C)[C@H]2N(CCCCn3cnc(-c4cccnc4)c3)C(=O)O[C@]12C [TEL, telithromycin]
0.03 µg/mL: strain 397, efflux AB−, RPMI
128 µg/mL: strain 1, efflux AB+, MHB | strain 4, efflux XY+, MHB | strain 12, efflux AB + CD + EF + XY+, MHB | strain 16, efflux AB + XY+, MHB | strain 22, efflux XY+, MHB | strain 48, efflux CD + EF + XY+, MHB | strain 49, efflux CD + EF + XY+, MHB | strain 63, efflux AB + EF + XY+, MHB | strain 68, efflux AB + XY+, MHB | strain 133, efflux EF + XY+, MHB | strain 156, efflux EF + XY+, MHB | strain 207, efflux AB + EF + XY+, MHB | strain 335, efflux AB + EF+, MHB | strain 434, efflux AB + CD + XY+, MHB
0.25 µg/mL: strain 3, efflux EF+, RPMI | strain 396, ompH−, RPMI | strain 398, efflux CD−, RPMI | strain 399, efflux AB − EF−, RPMI | strain 400, efflux XY−, RPMI | strain 405, efflux AB − CD − EF − XY−, RPMI
32 µg/mL: strain 392, efflux CD−, MHB | strain 395, efflux HI−, MHB
256 µg/mL: strain 2, efflux CD+, MHB | strain 41, efflux CD+, MHB | strain 168B, efflux CD + XY+, MHB | strain 266B, efflux AB + CD+, MHB | strain PAO1, REFERENCE, MHB
64 µg/mL: strain 3, efflux EF+, MHB | strain 11, efflux AB + CD+, MHB | strain 21, efflux AB+, MHB | strain 40, efflux EF+, MHB | strain 333A, efflux AB + EF+, MHB | strain 391, efflux EF−, MHB | strain 394, efflux XY−, MHB
8 µg/mL: strain 48, efflux CD + EF + XY+, RPMI | strain 397, efflux AB−, MHB | strain 398, efflux CD−, MHB | strain 400, efflux XY−, MHB | strain 405, efflux AB − CD − EF − XY−, MHB
1 µg/mL: strain 11, efflux AB + CD+, RPMI | strain 394, efflux XY−, RPMI | strain 401, ompH−, RPMI
16 µg/mL: strain 2, efflux CD+, RPMI | strain 396, ompH−, MHB
2 µg/mL: strain 21, efflux AB+, RPMI | strain 22, efflux XY+, RPMI | strain 40, efflux EF+, RPMI | strain 156, efflux EF + XY+, RPMI | strain 333A, efflux AB + EF+, RPMI | strain 391, efflux EF−, RPMI | strain 395, efflux HI−, RPMI | strain PAO1, REFERENCE, RPMI
4 µg/mL: strain 1, efflux AB+, RPMI | strain 4, efflux XY+, RPMI | strain 12, efflux AB + CD + EF + XY+, RPMI | strain 16, efflux AB + XY+, RPMI | strain 41, efflux CD+, RPMI | strain 49, efflux CD + EF + XY+, RPMI | strain 63, efflux AB + EF + XY+, RPMI | strain 68, efflux AB + XY+, RPMI | strain 133, efflux EF + XY+, RPMI | strain 168B, efflux CD + XY+, RPMI | strain 207, efflux AB + EF + XY+, RPMI | strain 266B, efflux AB + CD+, RPMI | strain 335, efflux AB + EF+, RPMI | strain 399, efflux AB − EF−, MHB | strain 401, ompH−, MHB | strain 403, efflux AB − CD − EF − XY−, MHB | strain 434, efflux AB + CD + XY+, RPMI
0.5 µg/mL: strain 392, efflux CD−, RPMI | strain 403, efflux AB − CD − EF − XY−, RPMI
